Measured values taken from patent US12161634B2, “Pyruvate kinase R (PKR) activating compositions” (Novo Nordisk Health Care AG, priority 2020, dated 2024).

Legend:
[1] = Dynamic vapor sorption (DVS); assay type: physicochemical
Description: Dynamic Vapor Sorption (DVS) was measured with a Surface Measurement System (SMS) DVS Intrinsic.

[2] = Polymorph screening (solid form by XRPD); assay type: physicochemical
Description: Polymorph screening experiments were performed using a series of crystallization and solid transition methods.
Solid vapor diffusion experiments were conducted using 13 different solvents. Approximately 15 mg of Compound 1 (Type A) was weighed into a 4-mL vial, which was placed into a 20-mL vial with 3 mL of volatile solvent. The 20-mL vial was sealed with a cap and kept at RT for 7 days, allowing solvent vapor to interact with the sample.
Slurry experiments were conducted […] in different solvent systems. About 15 mg of Compound 1 (Type A) was suspended in 0.3 mL of solvent in a 2-mL glass vial. After the suspension was stirred magnetically for 7 days at 4° C., RT or 50° C., the remaining solids were isolated for XRPD analysis (Method A).
Approximately 15 mg of Compound 1 (Type A) was dissolved in an appropriate solvent to obtain a clear solution in a 4-mL vial. This solution was then placed into a 20-mL vial with 3 mL of anti-solvent. The 20-mL vial was sealed with a cap and kept at RT, allowing sufficient time for organic vapor to interact with the solution. After 7 days, solids were isolated for XRPD analysis (Method A).
Compound 1 (Type A) was weighed into a 3 mL glass vial with the addition of the corresponding solvent or solvent mixture. After being vortexed and ultrasonically shaken, the suspension was filtered, and the filtrate was transferred to a clean 4 mL shell vial. A small amount of Compound 1 (Type A) was added as a seed crystal. Subsequently, the shell vial was sealed with a polyethylene plug with one pinhole and enclosed in a 20 mL glass vial containing 3 mL of the anti-solvent at room temperature for liquid vapor diffusion. The solid forms resulting from the experiments were characterized by XRPD analysis (Method C).
Slow evaporation experiments were performed under 4 conditions. Briefly, about 15 mg of Compound 1 (Type A) was mixed with 1.0-2.5 mL of solvent in a 4-mL glass vial. If the solids were not dissolved completely, suspensions were filtered using a PTFE membrane (pore size of 0.2 μm) and the filtrates were used for the follow-up steps. The visually clear solutions were subjected to evaporation at RT with vials sealed by Parafilm® (3-5 pinholes).
Compound 1 (Type A) was weighed into a 3 mL glass vial with the addition of the corresponding solvent or solvent mixture. After being vortexed and ultrasonically shaken, the suspension was filtered, and the filtrate was transferred to a clean 4 mL shell vial. A small amount of Compound 1 (Type A) was added as a seed crystal. Subsequently, the shell vial was sealed with a polyethylene plug with one pinhole and placed in a fume hood at room temperature for slow evaporation. The solid forms resulting from the experiments were characterized by XRPD analysis (Method C).
A total of 8 anti-solvent addition experiments were carried out. About 15 mg of Compound 1 (Type A) was dissolved in 0.2-4.0 mL of solvent to obtain a clear solution. The solution was magnetically stirred followed by addition of 0.2 mL anti-solvent per step until precipitate appeared or the total amount of anti-solvent reached 15.0 mL. The obtained precipitate was isolated for XRPD analysis (Method A).
A total of 2 reverse anti-solvent addition experiments were carried out. About 15 mg of Compound 1 (type A) was dissolved in 0.2 mL solvent to obtain a clear solution. The solution was added into 2 mL anti-solvent. The obtained precipitate was isolated for XRPD analysis (Method A). Results summarized in Table 16 indicated Type A or a mixture of Type A and amorphous material were generated.
Compound 1 (Type A) was weighed into a 3 mL glass vial with the addition of the corresponding solvent or solvent mixture. After being vortexed and ultrasonically shaken to accelerate dissolution, the suspension was placed in a biochemical incubator and equilibrated at 50° C. for 30 minutes. […]

O=C([C@H](CO)c1ccccc1)N1CC2=C(C1)CN(S(=O)(=O)c1cnc3c(c1)OCCO3)C2 [Type A, (S)-1-(5-[2H,3H-[1,4]dioxino[2,3-b]pyridine-7-sulfonyl]-1H,2H,3H,4H,5H,6H-pyrrolo[3,4-c]pyrrol-2-yl)-3-hydroxy-2-phenylpropan-1-one]
Gel: Solid Form ([2]; slow evaporation, seeded, RT, 32.9 mg in 0.5 mL 1,4-dioxane/H2O (4:1 v/v))
Type L: Solid Form ([2]; slow cooling 50° C. to 5° C., 39.7 mg in 1.0 mL THF/H2O (1:1 v/v), then kept at 5° C. for 22 days)
Type K: Solid Form ([2]; slow cooling 50° C. to 5° C., 15.4 mg in 1.5 mL 2-MeTHF)
hygroscopic: hygroscopicity ([1]; DVS at RT)
Type H: Solid Form ([2]; liquid vapor diffusion, seeded, RT, 32.1 mg in 0.2 mL DMF, anti-solvent Toluene)
Type B: Solid Form ([2]; liquid vapor diffusion RT 7 days, solvent 1,4-Dioxane, anti-solvent MeOH) | Solid Form ([2]; liquid vapor diffusion RT 7 days, solvent Acetone, anti-solvent H2O) | Solid Form ([2]; liquid vapor diffusion, seeded, RT, 3.0 mg in 0.5 mL MeOH, anti-solvent MTBE) | Solid Form ([2]; liquid vapor diffusion, seeded, RT, 10.0 mg in 0.5 mL ACN, anti-solvent MTBE) | Solid Form ([2]; liquid vapor diffusion, seeded, RT, 10.1 mg in 0.5 mL ACN, anti-solvent H2O) | Solid Form ([2]; slow cooling 50° C. to 5° C., 20.3 mg in 1.5 mL EtOAc) | Solid Form ([2]; slow cooling 50° C. to 5° C., 20.5 mg in 1.5 mL MeOH) | Solid Form ([2]; slow cooling 50° C. to 5° C., 40.3 mg in 0.8 mL ACN/H2O (2:1 v/v)) | Solid Form ([2]; slow cooling 50° C. to 5° C., 40.4 mg in 1.0 mL 1,4-dioxane/H2O (1:1 v/v)) | Solid Form ([2]; slow cooling 50° C. to 5° C., 40.6 mg in 1.0 mL Acetone/H2O (2:1 v/v)) | Solid Form ([2]; slow evaporation, seeded, RT, 3.0 mg in 1.0 mL MeOH) | Solid Form ([2]; slow evaporation, seeded, RT, 3.2 mg in 0.5 mL EtOAc/2-MeTHF (1:1 v/v)) | Solid Form ([2]; slow evaporation, seeded, RT, 3.2 mg in 1.0 mL EtOAc) | Solid Form ([2]; slow evaporation, seeded, RT, 5.2 mg in 0.5 mL MeOH/Acetone (1:1 v/v)) | Solid Form ([2]; slow evaporation, seeded, RT, 9.6 mg in 0.5 mL THF/H2O (5:1 v/v)) | Solid Form ([2]; slow evaporation, seeded, RT, 9.8 mg in 0.5 mL ACN/H2O (5:1 v/v)) | Solid Form ([2]; slow evaporation, seeded, RT, 10.0 mg in 0.5 mL ACN) | Solid Form ([2]; slow evaporation, seeded, RT, 13.0 mg in 0.5 mL Acetone/H2O (5:1 v/v)) | Solid Form ([2]; slow evaporation, seeded, RT, 27.7 mg in 0.5 mL ACN/n-heptane (10:1 v/v)) | Solid Form ([2]; slurry of Type A 7 days, Acetone/H2O (v/v, 1:3), 50° C.) | Solid Form ([2]; slurry of Type A 7 days, DMSO/H2O (1/9), RT) | Solid Form ([2]; slurry of Type A 7 days, H2O, 50° C.) | Solid Form ([2]; slurry of Type A 7 days, MeOH, 50° C.)
Type B + Type A: Solid Form ([2]; slurry of Type A 7 days, CHCl3/Toluene (1/3), 4° C.)
Type I: Solid Form ([2]; liquid vapor diffusion, seeded, RT, 10.9 mg in 0.1 mL DMF, anti-solvent IPAc)
Type J: Solid Form ([2]; liquid vapor diffusion, seeded, RT, 30.8 mg in 0.2 mL NMP, anti-solvent MTBE)
3.4%: water uptake up to 40% RH ([1]; DVS, up to 40% RH (ambient condition), RT)
Type F: Solid Form ([2]; liquid vapor diffusion RT 7 days, solvent 1,4-Dioxane, anti-solvent n-Heptane)
Type M: Solid Form ([2]; liquid vapor diffusion, seeded, RT, 12.1 mg in 0.5 mL THF, anti-solvent EtOAc)
Type C: Solid Form ([2]; slurry of Type A 7 days, 1,4-Dioxane, RT)
1.0%: water uptake from 40% RH to 80% RH ([1]; DVS, RT)
Type D: Solid Form ([2]; liquid vapor diffusion, seeded, RT, 10.4 mg in 0.5 mL THF, anti-solvent n-pentane) | Solid Form ([2]; liquid vapor diffusion, seeded, RT, 11.5 mg in 0.5 mL THF, anti-solvent MeOH) | Solid Form ([2]; slow evaporation, seeded, RT, 10.1 mg in 0.5 mL THF) | Solid Form ([2]; slurry of Type A 7 days, THF, 4° C.)
Type A: Solid Form ([2]; liquid vapor diffusion RT 7 days, solvent 1,4-Dioxane, anti-solvent EtOAc) | Solid Form ([2]; liquid vapor diffusion RT 7 days, solvent 1,4-Dioxane, anti-solvent MTBE) | Solid Form ([2]; liquid vapor diffusion RT 7 days, solvent 1,4-Dioxane, anti-solvent Toluene) | Solid Form ([2]; liquid vapor diffusion RT 7 days, solvent Acetone, anti-solvent IPA) | Solid Form ([2]; liquid vapor diffusion RT 7 days, solvent Acetone, anti-solvent MIBK) | Solid Form ([2]; liquid vapor diffusion RT 7 days, solvent CHCl3, anti-solvent 2-MeTHF) | Solid Form ([2]; liquid vapor diffusion RT 7 days, solvent CHCl3, anti-solvent EtOH) | Solid Form ([2]; liquid vapor diffusion RT 7 days, solvent CHCl3, anti-solvent IPAc) | Solid Form ([2]; liquid vapor diffusion RT 7 days, solvent THF, anti-solvent EtOAc) | Solid Form ([2]; liquid vapor diffusion RT 7 days, solvent THF, anti-solvent MeOH) | Solid Form ([2]; liquid vapor diffusion, seeded, RT, 4.9 mg in 0.5 mL Acetone, anti-solvent MTBE) | Solid Form ([2]; liquid vapor diffusion, seeded, RT, 10.8 mg in 0.1 mL DMSO, anti-solvent IPA) | Solid Form ([2]; liquid vapor diffusion, seeded, RT, 17.6 mg in 0.5 mL 1,4-dioxane, anti-solvent n-heptane) | Solid Form ([2]; liquid vapor diffusion, seeded, RT, 31.9 mg in 0.2 mL DMSO, anti-solvent H2O) | Solid Form ([2]; liquid vapor diffusion, seeded, RT, 34.3 mg in 0.3 mL CHCl3, anti-solvent n-pentane) | Solid Form ([2]; slow cooling 50° C. to 5° C., 15.7 mg in 1.5 mL EtOH) | Solid Form ([2]; slow cooling 50° C. to 5° C., 40.3 mg in 1.0 mL Acetone/n-heptane (3:1 v/v)) | Solid Form ([2]; slow evaporation, seeded, RT, 4.5 mg in 0.5 mL Acetone/EtOH (1:1 v/v)) | Solid Form ([2]; slow evaporation, seeded, RT, 4.6 mg in 0.5 mL Acetone) | Solid Form ([2]; slow evaporation, seeded, RT, 4.7 mg in 0.5 mL Acetone/EtOAc (1:1 v/v)) | Solid Form ([2]; slow evaporation, seeded, RT, 5.0 mg in 0.5 mL ACN/MIBK (1:1 v/v)) | Solid Form ([2]; slow evaporation, seeded, RT, 7.3 mg in 0.5 mL DCM/IPAc (1:1 v/v)) | Solid Form ([2]; slow evaporation, seeded, RT, 10.7 mg in 0.5 mL THF/EtOH (1:1 v/v)) | Solid Form ([2]; slow evaporation, seeded, RT, 10.8 mg in 0.5 mL DCM/n-heptane (1:1 v/v)) | Solid Form ([2]; slow evaporation, seeded, RT, 11.1 mg in 0.5 mL ACN/EtOAc (1:1 v/v)) | Solid Form ([2]; slow evaporation, seeded, RT, 13.8 mg in 0.5 mL ACN/EtOH (1:1 v/v)) | Solid Form ([2]; slow evaporation, seeded, RT, 14.4 mg in 0.5 mL ACN/2-MeTHF (1:1 v/v)) | Solid Form ([2]; slow evaporation, seeded, RT, 17.3 mg in 0.5 mL ACN/IPA (4:1 v/v)) | Solid Form ([2]; slow evaporation, seeded, RT, 22.7 mg in 0.5 mL CHCl3/IPA (1:1 v/v)) | Solid Form ([2]; slow evaporation, seeded, RT, 22.9 mg in 0.5 mL CHCl3/toluene (1:1 v/v)) | Solid Form ([2]; slurry of Type A 7 days, 1,4-Dioxane/MeOH (v/v, 1:1), 50° C.) | Solid Form ([2]; slurry of Type A 7 days, 1,4-Dioxane/Toluene (v/v, 1:1), 50° C.) | Solid Form ([2]; slurry of Type A 7 days, 1,4-Dioxane, 50° C.) | Solid Form ([2]; slurry of Type A 7 days, 2-MeTHF, 50° C.) | Solid Form ([2]; slurry of Type A 7 days, ACN/IPA (v/v, 1:3), 50° C.) | Solid Form ([2]; slurry of Type A 7 days, ACN, 4° C.) | Solid Form ([2]; slurry of Type A 7 days, Acetone/IPAc (v/v, 1:3), 50° C.) | Solid Form ([2]; slurry of Type A 7 days, Acetone, RT) | Solid Form ([2]; slurry of Type A 7 days, CHCl3/EtOAc (v/v, 1:3), 50° C.) | Solid Form ([2]; slurry of Type A 7 days, CHCl3/MeOH (v/v, 1:3), 50° C.) | Solid Form ([2]; slurry of Type A 7 days, DCM/EtOH (v/v, 1:3), 50° C.) | Solid Form ([2]; slurry of Type A 7 days, DCM/n-Heptane (1/3), 4° C.) | Solid Form ([2]; slurry of Type A 7 days, EtOAc, 50° C.) | Solid Form ([2]; slurry of Type A 7 days, EtOH, 50° C.) | Solid Form ([2]; slurry of Type A 7 days, IPA, 50° C.) | Solid Form ([2]; slurry of Type A 7 days, IPAc, 50° C.) | Solid Form ([2]; slurry of Type A 7 days, MIBK, 50° C.) | Solid Form ([2]; slurry of Type A 7 days, MTBE, 50° C.) | Solid Form ([2]; slurry of Type A 7 days, THF, 50° C.) | Solid Form ([2]; slurry of Type A 7 days, Toluene, 50° C.) | Solid Form ([2]; slurry of Type A 7 days, n-Heptane, 50° C.)
No form change: form change before and after DVS test ([1]; RT, determined by XRPD)
